Data as given in patent US7049331B2, “1,2,4-thiadiazole derivatives as melanocortin receptor modulators” (Ortho-McNeil Pharmaceutical, Inc., priority 2001, dated 2006).

What was measured:
[1] = biological target: T1, melanocortin MC-4 receptor (Homo sapiens, UniProt P32245); assay: Melanocortin MC-4 Receptor Binding Assay (SPA)
T1 construct: purchased Receptor Biology Inc
In short: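 Membranes bound to WGA SPA beads were incubated 16 h at 25° C with 40 pM ¹²⁵I-NDP-MSH and test compound (1 mM stock in 30% DMSO-HEPES pH 7.4). Nonspecific binding set with 1 μM NDP-MSH or α-MSH; percent inhibition from bound cpm.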

human sebocytes [2] = assay: Nile red evaluation of lipid accumulation in sebocytes; type: cell-based; details: for inhibition at 0.4 µM: read-out: % Inh 0.4 μM (lipid accumulation, Nile red); for inhibition at 0.8 µM: read-out: % Inh 0.8 μM (lipid accumulation, Nile red)
Description: The cells were incubated at 37° C. for 24 hours prior to their use as a feeder layer for sebocytes. Human sebocytes were isolated from Dermatome shavings of postoperative pieces of human skin at 0.4-0.8 mm depths (this part of the skin was previously shown to be enriched in sebaceous glands). […] This medium was changed every 3 days (Phase III). Hormones, mixture of hormones i.e. bovine pituitary extract or compounds to be tested were added to the culture at the beginning of phase III. […] The evaluation of lipid accumulation completed using the Nile red method. This method relies on visualization of neutral lipids by Nile red and quantitation by reading of fluorescence at 535 nm excitation, 580 nm emission using a plate reader. The lipid synthesis was evaluated by radioactive labeling using ^14C acetate and quantified by Bio Rad Phosphoimager (Molecular Imager, FX) using 4.1 Software. […] Quantitation of accumulation/inhibition of neutral lipids in sebocytes was accomplished by Nile red binding assay. Briefly, following exposure of sebocytes to test compounds, the cells were allowed to interact with 1 μM Nile red in Hanks buffered saline solution containing DMSO and Pluronic F127. After 4 hours of incubation, washing and incubation overnight, the fluorescence was read at 535 excitation and 580 emission using a fluorescence plate reader. […] Following the procedure described above, select compounds of the present invention were tested for visual and Nile red evaluation of lipid accumulation, with results as listed in Table 9.

human sebocytes [3] = assay: Visual observation of lipid granule formation in sebocytes; type: cell-based
Description: Semiconfluent cultures of 3T3 mouse fibroblasts (Swiss Albino mouse, ATCC CCL-92) were treated with mitomycin C (4 μg/ml) for 3 hours, trypsinized and seeded at a density of 2.5×10^5/9.5 cm^2 tissue culture plate in Dulbeccos Minimal Essential Medium (DMEM) containing 10% Colorado Calf Serum, PNC (100U/ml), STM (100 μg/ml), L glutamine (0.3 mg/ml), sodium pyruvate (1 mM) and nonessential amino acids (100 μM). The cells were incubated at 37° C. for 24 hours prior to their use as a feeder layer for sebocytes.
Human sebocytes were isolated from Dermatome shavings of postoperative pieces of human skin at 0.4–0.8 mm depths (this part of the skin was previously shown to be enriched in sebaceous glands). Shavings so obtained were treated with 1% Dispase in Iscoves medium containing 10% serum for 20 min at 37° C. The tissue was then placed in 0.3% trypsin/1% EDTA in Phosphate Buffered Saline (PBS) for 10 minutes at 37° C. Following this incubation the cells were gently scraped from the tissue in Growth medium (GM) containing DMEM/F12 media mixture (3:1), supplemented with 8% heat inactivated FBS, 2% heat inactivated human serum (HS), 1 mM sodium pyruvate, epidermal growth factor (10 ng/ml), insulin (10 μg/ml), hydrocortisone (0.4 μg/ml) and +/−cholera toxin (100 μg/ml), L-glutamine and antibiotics. Cells so obtained were filtered through nylon mesh ([…]), centrifuged at 750 RPM, re-suspended in GM and counted.
Resultant cells from the above isolation procedure were plated on the 3T3 feeder layers at 2×10^5/9.5 cm^2 in growth medium and maintained at 37° C. and 5% CO2 for 3 days (Phase I). Following the initial growth period they were transferred to a transition medium (TM) that consisted of DMEM/F12 media supplemented with 1 mM sodium pyruvate, insulin ([…]), transferrin ([…]) and selenium (5.5 μg/ml) (ITS), 2% heat inactivated FBS and 2% heat inactivated human serum as well as +/−cholera toxin (ch.t.) (100 μg/ml), L-glutamine and antibiotics (Phase II). Three days later the cells were changed to differentiation medium (DM), DMEM/F12 supplemented with ITS, 3,3′,5-triido-L-thyronine sodium (3 nM), 1%(v/v) trace element mix and the choice of differentiation agent i.e. bovine pituitary extract (10 μg/ml). This medium was changed every 3 days (Phase III).
Hormones, mixture of hormones i.e. bovine pituitary extract or compounds to be tested were added to the culture at the beginning of phase III. Two criteria were used to evaluate the effect of these materials on sebaceous cultures: 1) visual observations and 2) evaluation of sebaceous lipid accumulation and synthesis. The evaluation of lipid accumulation completed using the Nile red method. This method relies on visualization of neutral lipids by Nile red and quantitation by reading of fluorescence at 535 nm excitation, 580 nm emission using a plate reader. The lipid synthesis was evaluated by radioactive labeling using ^14C acetate and quantified by Bio Rad Phosphoimager (Molecular Imager, FX) using 4.1 Software.
Quantitation of accumulation/inhibition of neutral lipids in sebocytes was accomplished by Nile red binding assay. Briefly, following exposure of sebocytes to test compounds, the cells were allowed to interact with 1 μM Nile red in Hanks buffered saline solution containing DMSO and Pluronic F127. After 4 hours of incubation, washing and incubation overnight, the fluorescence was read at 535 excitation and 580 emission using a fluorescence plate reader.
Following the procedure described above, select compounds of the present invention were tested for visual and Nile red evaluation of lipid accumulation, with results as listed in Table 9.
Following the procedure described above, select compounds of the present invention were tested for their inhibitory effect on differentiation of human sebocytes. […]

MC5-R = MC5-R (Homo sapiens, UniProt P33032); assay: MC5-R binding
Sequence of MC5-R (P33032 whole entry): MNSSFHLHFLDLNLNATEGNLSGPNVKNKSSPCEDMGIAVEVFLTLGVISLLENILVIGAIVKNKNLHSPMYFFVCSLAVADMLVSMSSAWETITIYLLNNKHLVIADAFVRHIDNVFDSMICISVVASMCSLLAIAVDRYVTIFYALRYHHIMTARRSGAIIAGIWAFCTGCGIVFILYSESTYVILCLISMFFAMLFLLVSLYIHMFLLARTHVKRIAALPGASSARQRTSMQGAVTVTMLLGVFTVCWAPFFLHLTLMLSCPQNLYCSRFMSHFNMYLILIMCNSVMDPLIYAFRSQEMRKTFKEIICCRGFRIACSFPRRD

T1 sequence (P32245 whole entry): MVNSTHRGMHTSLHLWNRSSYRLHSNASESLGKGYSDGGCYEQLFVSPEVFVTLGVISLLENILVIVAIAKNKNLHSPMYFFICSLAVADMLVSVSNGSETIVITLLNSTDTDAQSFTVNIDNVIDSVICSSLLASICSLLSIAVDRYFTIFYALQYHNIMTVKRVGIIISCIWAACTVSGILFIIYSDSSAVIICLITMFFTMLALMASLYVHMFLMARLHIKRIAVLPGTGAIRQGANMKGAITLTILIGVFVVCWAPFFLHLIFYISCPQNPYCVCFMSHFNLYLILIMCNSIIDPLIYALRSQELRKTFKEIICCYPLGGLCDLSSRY

Compound | IC50 [1] [nM] | inhibition at 0.4 µM (human sebocytes [2]) [%] | inhibition at 0.8 µM (human sebocytes [2]) [%] | Visual* 0.4 μM (inhibition of lipid granule formation) (human sebocytes [3]) | Visual* 0.8 μM (inhibition of lipid granule formation) (human sebocytes [3]) | MC5-R IC50 (MC5-R) | lipid granules in sebocyte cultures (visual, stained cultures) (human sebocytes [3]; seven day treatment) | IC50 (MC5-R) [µM]
COc1ccccc1-[n+]1sc(Nc2ccc(C)cc2)nc1-c1ccccc1.[Br-] [Compound 31, 2-(2-methoxyphenyl)-3-phenyl-5-p-tolylamino-[1,2,4]thiadiazol-2-ium] | 22 | – | – | – | – | – | – | –
COc1ccc(N(C)c2nc(-c3ccccc3)[n+](-c3ccc(C)cc3)s2)cc1 [Compound 50] | 30000 | 0 | 0 | 0 | 0 | No binding | – | –
COc1ccccc1-c1nc(Nc2ccccc2)s[n+]1-c1ccccc1OC.[Br-] [Compound 74, 2-(2-methoxyphenyl)-3-(2-methoxyphenyl)-5-phenylamino-[1,2.4]thiadiazol-2-ium] | 194 | 72 | 100 | +++ (+++ = 75%) | ++++ (++++ = 100%) | – | complete disappearance of lipid granules | 0.154
c1ccc(CNc2nc(-c3ccccc3)[n+](-c3ccccc3)s2)cc1 [Compound 84] | – | 0 | 0 | 0 | 0 | No binding | – | –
